System: KRAS PDC multicell spheroid viability
Assay: Anticancer human tumor 825966-067-R-J1-PDC patient-derived colon carcinoma cell line growth inhibition [KRAS2]
Settings: for IC50: curve of first compound; for viability, T/C: stronger effect = lower value
Method in brief: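 Combination screen of spheroid viability in tumor-cell co-cultures with endothelial (HUVEC) and mesenchymal stem cell stroma. Each agent was tested in half-log dilutions, topping at clinical Cmax or at 10 microM without a known Cmax.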

[1] = second compound 0.1 µM, first compound 0.0316 µM
[2] = second compound 0.1 µM, first compound 0.1 µM
[3] = second compound 0.1 µM, first compound 0.316 µM
[4] = second compound 0.1 µM, first compound 1 µM
[5] = second compound 0.1 µM, first compound 3.16 µM
[6] = second compound 0.316 µM, first compound 0.0316 µM
[7] = second compound 0.316 µM, first compound 0.1 µM
[8] = second compound 0.316 µM, first compound 0.316 µM
[9] = second compound 0.316 µM, first compound 1 µM
[10] = second compound 0.316 µM, first compound 3.16 µM
[11] = second compound 1 µM, first compound 0.0316 µM
[12] = second compound 1 µM, first compound 0.1 µM
[13] = second compound 1 µM, first compound 0.316 µM
[14] = second compound 1 µM, first compound 1 µM
[15] = second compound 1 µM, first compound 3.16 µM
[16] = second compound 3.16 µM, first compound 0.0316 µM
[17] = second compound 3.16 µM, first compound 0.1 µM
[18] = second compound 3.16 µM, first compound 0.316 µM
[19] = second compound 3.16 µM, first compound 1 µM
[20] = second compound 3.16 µM, first compound 3.16 µM
[21] = second compound 0.1 µM, first compound 0.01 µM
[22] = second compound 0.316 µM, first compound 0.01 µM
[23] = second compound 1 µM, first compound 0.01 µM
[24] = second compound 3.16 µM, first compound 0.01 µM
[25] = second compound 10 µM, first compound 0.01 µM
[26] = second compound 10 µM, first compound 0.0316 µM
[27] = second compound 10 µM, first compound 0.1 µM
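Further: spheroids exposed to compounds for 7 days.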
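Wherever viability, T/C is given: 100% = DMSO vehicle control viability.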

## Cn1nccc1Nc1nccc(-c2cc3c(s2)C(C)(C)N(CCN2CCOCC2)C3=O)n1 + C=CC(=O)N1CCN(c2nc(OCC3CCCN3C)nc3c2CCN(c2cccc4cccc(C)c24)C3)CC1CC#N
Second compound 0.0316 µM
  IC50: > 10000 nM
Second compound 0.1 µM
  IC50: > 10000 nM
Second compound 0.316 µM
  IC50: > 10000 nM
Second compound 1 µM
  IC50: > 10000 nM
Second compound 3.16 µM
  IC50: 674 nM
Second compound 0.0316 µM, first compound 0.0316 µM
  viability, T/C: 108%
Second compound 0.0316 µM, first compound 0.1 µM
  viability, T/C: 91.1%
Second compound 0.0316 µM, first compound 0.316 µM
  viability, T/C: 121%
Second compound 0.0316 µM, first compound 1 µM
  viability, T/C: 108%
Second compound 0.0316 µM, first compound 3.16 µM
  viability, T/C: 95.3%
Second compound 0.0316 µM, first compound 10 µM
  viability, T/C: 68.5%
[1]
  viability, T/C: 84%
[2]
  viability, T/C: 91.6%
[3]
  viability, T/C: 106%
[4]
  viability, T/C: 100%
[5]
  viability, T/C: 73.4%
Second compound 0.1 µM, first compound 10 µM
  viability, T/C: 79.8%
[6]
  viability, T/C: 72.2%
[7]
  viability, T/C: 110%
[8]
  viability, T/C: 125%
[9]
  viability, T/C: 93.7%
[10]
  viability, T/C: 75.9%
Second compound 0.316 µM, first compound 10 µM
  viability, T/C: 61.2%
[11]
  viability, T/C: 85.9%
[12]
  viability, T/C: 96.1%
[13]
  viability, T/C: 127%
[14]
  viability, T/C: 96%
[15]
  viability, T/C: 64.8%
Second compound 1 µM, first compound 10 µM
  viability, T/C: 56.4%
[16]
  viability, T/C: 84.9%
[17]
  viability, T/C: 76.4%
[18]
  viability, T/C: 104%
[19]
  viability, T/C: 4.64%
[20]
  viability, T/C: 27.8%
Second compound 3.16 µM, first compound 10 µM
  viability, T/C: 57.8%

## CC(=O)OC12COC1CC(O)C1(C)C(=O)C(O)C3=C(C)C(OC(=O)C(O)C(NC(=O)OC(C)(C)C)c4ccccc4)CC(O)(C(OC(=O)c4ccccc4)C21)C3(C)C (stereo not given) + CC1OCC2(CCN(c3cnc(Sc4ccnc(N)c4Cl)c(N)n3)CC2)C1N
Second compound 0.1 µM
  IC50: < 10 nM
Second compound 0.316 µM
  IC50: < 10 nM
Second compound 1 µM
  IC50: < 10 nM
Second compound 3.16 µM
  IC50: < 10 nM
Second compound 10 µM
  IC50: < 10 nM
[21]
  viability, T/C: 17.9%
[1]
  viability, T/C: 15.2%
[2]
  viability, T/C: 18.4%
[3]
  viability, T/C: 17.1%
[4]
  viability, T/C: 17.3%
[5]
  viability, T/C: 22%
[22]
  viability, T/C: 13.1%
[6]
  viability, T/C: 12%
[7]
  viability, T/C: 13.3%
[8]
  viability, T/C: 12%
[9]
  viability, T/C: 15.8%
[10]
  viability, T/C: 15.9%
[23]
  viability, T/C: 17.5%
[11]
  viability, T/C: 18%
[12]
  viability, T/C: 18.9%
[13]
  viability, T/C: 12.3%
[14]
  viability, T/C: 13%
[15]
  viability, T/C: 21.6%
[24]
  viability, T/C: 10.3%
[16]
  viability, T/C: 10.2%
[17]
  viability, T/C: 10.7%
[18]
  viability, T/C: 6.99%
[19]
  viability, T/C: 7.72%
[20]
  viability, T/C: 11.7%
[25]
  viability, T/C: 7.08%
[26]
  viability, T/C: 7.25%
[27]
  viability, T/C: 10%
Second compound 10 µM, first compound 0.316 µM
  viability, T/C: 6.28%
Second compound 10 µM, first compound 1 µM
  viability, T/C: 4.82%
Second compound 10 µM, first compound 3.16 µM
  viability, T/C: 10.1%

## CN(C)C/C=C/C(=O)Nc1cc2c(Nc3ccc(F)c(Cl)c3)ncnc2cc1O[C@H]1CCOC1 + CC1OCC2(CCN(c3cnc(Sc4ccnc(N)c4Cl)c(N)n3)CC2)C1N
Second compound 0.1 µM
  IC50: > 100 nM
Second compound 0.316 µM
  IC50: > 100 nM
Second compound 1 µM
  IC50: > 100 nM
Second compound 3.16 µM
  IC50: > 100 nM
Second compound 10 µM
  IC50: > 100 nM
Second compound 0.1 µM, first compound 0.000316 µM
  viability, T/C: 103%
Second compound 0.1 µM, first compound 0.001 µM
  viability, T/C: 100%
Second compound 0.1 µM, first compound 0.00316 µM
  viability, T/C: 126%
[21]
  viability, T/C: 120%
[1]
  viability, T/C: 91.4%
[2]
  viability, T/C: 80.2%
Second compound 0.316 µM, first compound 0.000316 µM
  viability, T/C: 93.4%
Second compound 0.316 µM, first compound 0.001 µM
  viability, T/C: 86.6%
Second compound 0.316 µM, first compound 0.00316 µM
  viability, T/C: 94.2%
[22]
  viability, T/C: 79.1%
[6]
  viability, T/C: 105%
[7]
  viability, T/C: 101%
Second compound 1 µM, first compound 0.000316 µM
  viability, T/C: 104%
Second compound 1 µM, first compound 0.001 µM
  viability, T/C: 118%
Second compound 1 µM, first compound 0.00316 µM
  viability, T/C: 99%
[23]
  viability, T/C: 81.8%
[11]
  viability, T/C: 84.2%
[12]
  viability, T/C: 96.8%
Second compound 3.16 µM, first compound 0.000316 µM
  viability, T/C: 100%
Second compound 3.16 µM, first compound 0.001 µM
  viability, T/C: 105%
Second compound 3.16 µM, first compound 0.00316 µM
  viability, T/C: 93.9%
[24]
  viability, T/C: 86.3%
[16]
  viability, T/C: 88.1%
[17]
  viability, T/C: 85.9%
Second compound 10 µM, first compound 0.000316 µM
  viability, T/C: 81.1%
Second compound 10 µM, first compound 0.001 µM
  viability, T/C: 87.2%
Second compound 10 µM, first compound 0.00316 µM
  viability, T/C: 108%
[25]
  viability, T/C: 107%
[26]
  viability, T/C: 94.9%
[27]
  viability, T/C: 124%
